We go through 2 compounds from patent US9468670B2, “Melatonin-based treatment and diagnosis of bile duct disease” (Texas A&M University System, priority 2011, dated 2016).

The subject of data set [1] is PER1, BMAL1, CRY1, CLOCK, MT1 and MT2. The experiment in a line: FACS analysis of clock proteins and MT1/MT2 in large mouse cholangiocyte lines. Type of data set: cell-based. Particulars: in vitro melatonin vs. basal value. On the procedure: (i) in paraffin-embedded liver sections ([…]) from normal and BDL control rats by immunohistochemistry ([…] al., 2009); and (ii) in total RNA (1 μg, by real-time PCR) (Francis et al., 2008) from purified cholangiocytes. […] FACS analysis was performed as described (Onori et al., 2010) using a C6 flow cytometer and analyzed by CFlow Software (Accuri Cytometers Inc. Ann Arbor, Mich.). At least 10,000 events in the light-scatter (SSC/FSC) were acquired. The expression of the selected protein was identified and gated on FL1-A/Count plots. The relative quantity of the selected protein (mean selected protein fluorescence) was expressed as mean FL1-A (samples)/mean FL-1A (secondary antibodies only).

For data set [2], the system named is AANAT. In words: Expression of AANAT in liver sections, cholangiocytes, pineal gland and small intestine (immunohistochemistry, real-time PCR). Type of data set: in vivo, rat. As to the method: Male Fischer 344 rats (150-175 gm) were purchased from Charles River Laboratories (Wilmington, Mass.) and housed at 22° C. with 12:12 hr light/dark cycles. The animals had free access to standard chow and drinking water. […] Animal experiments were performed in accordance with a protocol approved by the Scott & White and Texas A&M Health Science Center IACUC. In separate experiments, normal rats treated with Vivo-Morpholino sequences of AANAT (5'-[…] NO:1), to reduce the biliary expression of AANAT) or Morpholino mismatched (5'-[…] NO:2)) (Gene Tools LCC) (1 mg/Kg BW/day) for 1 week via an implanted portal vein catheter. Serum, liver tissue, cholangiocytes, kidney, spleen, small intestine, stomach and heart were collected. Since our goal was to knock-down AANAT expression in the liver without inhibiting AANAT expression in other organs, we used a lower dose (1 mg/Kg/day) of Vivo-Morpholino than that described in the original study (3.0 mg/kg/day (Arora et al., 2002). This approach minimizes the amount of Vivo-Morpholino that circulates outside of the liver after slow infusion into the portal vein. See below for the surgical procedure for the implantation of the portal vein catheter by which AANAT Vivo-Morpholino or Morpholino mismatched was administered. The following was evaluated: (i) the expression of AANAT in liver sections and cholangiocytes from the selected groups of animals; and (ii) the effectiveness of the AANAT Vivo-Morpholino in lowering the expression of AANAT in cholangiocytes was determined. […] Data were expressed as relative mRNA levels ±SEM of the selected gene to glyceraldehyde-3-phosphate dehydrogenase (GAPDH) ratio. […]

Data set [3] concerns AANAT. In words: AANAT morpholino in normal rats with or without CCl4 (liver sections, qPCR, immunoblots). Type of data set: in vivo, rat. As to the method:
Methods: Normal rats were treated for 1 wk with AANAT morpholino (to reduce the biliary expression of AANAT) or scrambled morpholino (1 mg/kg BW/day) by a portal vein catheter before receiving a single dose of mineral oil or CCl4 (0.4 ml by gavage 1:1 in mineral oil/100 gm BW). Two days later, in liver sections the following was evaluated: (i) the hepatic expression of AANAT; and (ii) the percentage of TUNEL-positive cholangiocytes, and IBDM. In total liver tissue, the quantitative expression of AANAT, PCNA, Bax and Bcl-2 was studied by qPCR and immunoblots. In mouse cholangiocyte lines (NMC) stably overexpressing AANAT the expression of AANAT and CLOCK genes, melatonin secretion and biliary growth were studied after 48 hr incubation.

In data set [4] the target is T1, AANAT (Rattus norvegicus, UniProt Q64666).
T1 construct: the expression of AANAT in liver sections and cholangiocytes from the selected groups of animals; from tissue; host or cells: Male Fischer 344 rats: liver sections, total liver, isolated cholangiocytes, pineal gland, small intestine, serum
T1 sequence (Q64666 whole entry): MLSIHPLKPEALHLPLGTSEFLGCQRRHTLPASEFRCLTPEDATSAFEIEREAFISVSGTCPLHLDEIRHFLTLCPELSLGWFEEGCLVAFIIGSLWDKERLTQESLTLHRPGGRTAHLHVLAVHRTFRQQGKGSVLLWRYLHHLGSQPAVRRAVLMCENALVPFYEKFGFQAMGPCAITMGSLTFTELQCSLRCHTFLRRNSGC
The experiment in a line: Melatonin levels in serum and cholangiocyte supernatant (ELISA) of Morpholino-treated rats. In kind it is in vivo. Particulars: normal rats. On the procedure:
In separate experiments, normal rats treated with Vivo-Morpholino sequences of AANAT (5'-[…] NO:1), to reduce the biliary expression of AANAT) or Morpholino mismatched (5'-[…] NO:2)) (Gene Tools LCC) (1 mg/Kg BW/day) for 1 week via an implanted portal vein catheter. Serum, liver tissue, cholangiocytes, kidney, spleen, small intestine, stomach and heart were collected. Since our goal was to knock-down AANAT expression in the liver without inhibiting AANAT expression in other organs, we used a lower dose (1 mg/Kg/day) of Vivo-Morpholino than that described in the original study (3.0 mg/kg/day (Arora et al., 2002). This approach minimizes the amount of Vivo-Morpholino that circulates outside of the liver after slow infusion into the portal vein. See below for the surgical procedure for the implantation of the portal vein catheter by which AANAT Vivo-Morpholino or Morpholino mismatched was administered. Melatonin levels in serum and medium of primary cultures of isolated cholangiocytes were determined by ELISA kits (Genway, San Diego, Calif.). Supernatants were obtained from cholangiocytes (1×10^7 cells/ml) that were incubated for 6 hours at 37° C. (Glaser et al., 2008).

Where [5] appears, read: normal rats vs. scrambled morpholino.
[6] abbreviates: normal rats, 1 mg/Kg BW/day 1 week vs. controls.

Marks after values point to notes of the source that are not given here.

For the compound `COc1ccc2[nH]cc(CCNC(C)=O)c2c1` [melatonin], in data set [1], the “Expression of MT1 and MT2 (FACS)” value is “decreased”; the “Expression of PER1, BMAL1, CRY1 and CLOCK (FACS)” value is recorded as “decreased”. In addition, in the data set on AANAT [2] (BDL rats treated with melatonin (20 mg/L in tap water) 1 week), the “Expression of AANAT in bile ducts” value was “increased”.

For “AANAT Vivo-Morpholino: Vivo-Morpholino sequence of AANAT 5′-GTTCCCCAGCTTTGGAAGTGGTCCC (SEQ ID NO:1), to reduce the biliary expression of AANAT (all phosphorodiamidate morpholino (PMO); Vivo-Morpholino delivery moiety attached, position not given here, further chemistry not fully specified)”, in the data set with AANAT [3] (setting [5]), the “AANAT expression in liver tissue” value is “decreased” and the “PCNA expression in liver tissue” value was “increased”. The IBDM entry in the data set with AANAT [3] (normal rats, 1 mg/kg BW/day for 1 wk by portal vein catheter, vs. controls) was “enhanced”. Moreover, the “Biliary apoptosis in response to CCl4” value in the data set with AANAT [3] (rats, 1 mg/kg BW/day for 1 wk then single dose of CCl4) was “absence”. Further, the Melatonin supernatant in the data set with AANAT [4] (cholangiocyte supernatant, 6 hours at 37° C., 1 mg/Kg BW/day for 1 week) is reported as 3.2 ± 0.2^a pg/ml. For the same compound, the Melatonin serum in the data set with AANAT [4] (1 mg/Kg BW/day for 1 week via portal vein catheter) was 58.4 ± 8.7^a pg/ml. Besides, in the data set on AANAT [2] (setting [6]), the AANAT biliary expression result is reported as “reduced”; the “AANAT mRNA levels in pineal gland and small intestine” value is listed as “increased”.
